{"source": "patent US12661342B2", "about": "“Heteroaryl compounds and therapeutic uses thereof in conditions associated with the alteration of the activity of beta-glucocerebrosidase” (GT GAIN THERAPEUTICS SA, priority 2019, dated 2026)"}
{"target": "T1, β-glucocerebrosidase (Homo sapiens, UniProt P04062, L483P)", "T1 construct": "host or cells: human Gaucher disease patient fibroblasts GM08760A", "T1 sequence (P04062 40-536 L483P)": "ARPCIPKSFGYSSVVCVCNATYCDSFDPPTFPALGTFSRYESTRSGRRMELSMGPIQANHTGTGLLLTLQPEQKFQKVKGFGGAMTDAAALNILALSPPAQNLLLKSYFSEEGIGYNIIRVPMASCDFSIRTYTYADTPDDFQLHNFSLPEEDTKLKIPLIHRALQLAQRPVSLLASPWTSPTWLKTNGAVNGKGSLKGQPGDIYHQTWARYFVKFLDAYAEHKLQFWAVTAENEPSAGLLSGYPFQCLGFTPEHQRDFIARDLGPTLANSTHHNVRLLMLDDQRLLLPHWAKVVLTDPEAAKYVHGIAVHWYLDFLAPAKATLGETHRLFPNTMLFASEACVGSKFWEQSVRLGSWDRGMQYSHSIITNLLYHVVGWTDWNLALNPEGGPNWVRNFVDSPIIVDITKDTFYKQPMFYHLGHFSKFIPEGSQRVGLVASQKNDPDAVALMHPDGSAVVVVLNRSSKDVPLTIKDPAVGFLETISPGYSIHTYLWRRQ", "test": "Enhancement of β-glucocerebrosidase activity measured in Gaucher disease fibroblasts (4-MU-β-D-glucopyranoside substrate, intact cells)", "assay_type": "cell-based", "set-up": "key: Increase in comparison with non-treated of >2.0 fold is shown as A; Increase in comparison with non-treated of >1.7-2.0 fold is shown as B; Increase in comparison with non-treated of 1.2-1.7 fold is shown as C; D means that no increase compared with non-treated cells was detected in this method", "conditions": "GBA fibroblasts bearing L444P (GM08760A, homozygous p.L444P); compound at concentrations between 6 and 50 μM; 4 days incubation", "in_short": "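Patient fibroblasts homozygous for p.L444P (GM08760A), grown in DMEM/10% FBS and exposed to compound for 4 days. Intact cells then given 4-MU-β-D-glucopyranoside in 0.1 M acetate pH 4, 1 h, 37 °C; stopped at pH 10.7, 4-MU fluorescence ex 340/em 460. Value is fold increase over untreated cells; binned at 6–50 μM.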"}
{"molecule": "Nc1cc(Nc2ccccc2O)cc(C(=O)N2CCN(c3ccccc3)CC2)n1", "note": "[Example 61, (6-Amino-4-((2-hydroxyphenyl)amino)pyridin-2-yl)(4-phenylpiperazin-1-yl)methanone]", "Range: increase in enzyme activity in comparison with non-treated cells (Enzyme activity assay for compounds of Examples 33-141)": "C (Increase in comparison with non-treated of 1.2-1.7 fold is shown as C)"}
{"molecule": "Nc1cc(Nc2ccccc2F)cc(C(=O)N2CCN(c3ccccc3)CC2)n1", "note": "[Example 62]", "Range: increase in enzyme activity in comparison with non-treated cells (Enzyme activity assay for compounds of Examples 33-141)": "D"}
{"molecule": "Nc1cc(Nc2ccccc2O)cc(C(=O)N2CCc3ccccc32)n1", "note": "[Example 64, (6-Amino-4-((2-hydroxyphenyl)amino)pyridin-2-yl)(indolin-1-yl)methanone]", "Range: increase in enzyme activity in comparison with non-treated cells (Enzyme activity assay for compounds of Examples 33-141)": "C (Increase in comparison with non-treated of 1.2-1.7 fold is shown as C)"}
{"molecule": "Nc1cc(Nc2ccccc2O)cc(C(=O)Nc2ccccc2)n1", "note": "[Example 65, 6-Amino-4-((2-hydroxyphenyl)amino)-N-phenylpicolinamide]", "Range: increase in enzyme activity in comparison with non-treated cells (Enzyme activity assay for compounds of Examples 33-141)": "A (Increase in comparison with non-treated of >2.0 fold is shown as A)"}
{"molecule": "Nc1cc(Nc2ccccc2O)cc(C(=O)NC2Cc3ccccc3C2)n1", "note": "[Example 67, 6-Amino-N-(2,3-dihydro-1H-inden-2-yl)-4-((2-hydroxyphenyl)amino)picolinamide]", "Range: increase in enzyme activity in comparison with non-treated cells (Enzyme activity assay for compounds of Examples 33-141)": "B (Increase in comparison with non-treated of >1.7-2.0 fold is shown as B)"}
{"molecule": "Cc1ccc(Nc2cc(N)nc(C(=O)NC3Cc4ccccc4C3)c2)c(O)c1", "note": "[Example 68, 6-Amino-N-(2,3-dihydro-1H-inden-2-yl)-4-((2-hydroxy-4-methylphenyl)amino)picolinamide]", "Range: increase in enzyme activity in comparison with non-treated cells (Enzyme activity assay for compounds of Examples 33-141)": "C (Increase in comparison with non-treated of 1.2-1.7 fold is shown as C)"}
{"molecule": "Nc1cc(Nc2ccc(F)cc2O)cc(C(=O)NC2Cc3ccccc3C2)n1", "note": "[Example 69, 6-Amino-N-(2,3-dihydro-1H-inden-2-yl)-4-((4-fluoro-2-hydroxyphenyl)amino)picolinamide]", "Range: increase in enzyme activity in comparison with non-treated cells (Enzyme activity assay for compounds of Examples 33-141)": "B (Increase in comparison with non-treated of >1.7-2.0 fold is shown as B)"}
{"molecule": "Nc1cc(Nc2ccccc2F)cc(C(=O)NC2Cc3ccccc3C2)n1", "note": "[Example 70, 6-Amino-N-(2,3-dihydro-1H-inden-2-yl)-4-((2-fluorophenyl)amino)picolinamide]", "Range: increase in enzyme activity in comparison with non-treated cells (Enzyme activity assay for compounds of Examples 33-141)": "D"}
{"molecule": "Nc1cc(Nc2ccccc2F)nc(C(=O)NC2Cc3ccccc3C2)c1", "note": "[Example 71, 4-Amino-N-(2,3-dihydro-1H-inden-2-yl)-6-((2-fluorophenyl)amino)picolinamide]", "Range: increase in enzyme activity in comparison with non-treated cells (Enzyme activity assay for compounds of Examples 33-141)": "B (Increase in comparison with non-treated of >1.7-2.0 fold is shown as B)"}
{"molecule": "Nc1cc(Nc2ccccc2Cl)cc(C(=O)NC2Cc3ccccc3C2)n1", "note": "[Example 72, 6-Amino-4-((2-chlorophenyl)amino)-N-(2,3-dihydro-1H-inden-2-yl)picolinamide]", "Range: increase in enzyme activity in comparison with non-treated cells (Enzyme activity assay for compounds of Examples 33-141)": "D"}
{"molecule": "Nc1cc(Nc2cccc3c2OCO3)cc(C(=O)Nc2ccccc2)n1", "note": "[Example 73, 6-Amino-4-(benzo[d][1,3]dioxol-4-ylamino)-N-phenylpicolinamide]", "Range: increase in enzyme activity in comparison with non-treated cells (Enzyme activity assay for compounds of Examples 33-141)": "C (Increase in comparison with non-treated of 1.2-1.7 fold is shown as C)"}
{"molecule": "Nc1cc(Nc2ccccc2F)cc(C(=O)Nc2ccccc2)n1", "note": "[Example 74, 6-Amino-4-((2-fluorophenyl)amino)-N-phenylpicolinamide]", "Range: increase in enzyme activity in comparison with non-treated cells (Enzyme activity assay for compounds of Examples 33-141)": "C (Increase in comparison with non-treated of 1.2-1.7 fold is shown as C)"}
{"molecule": "Nc1cc(Nc2ccccc2F)nc(C(=O)Nc2ccccc2)c1", "note": "[Example 75, 4-Amino-6-((2-fluorophenyl)amino)-N-phenylpicolinamide]", "Range: increase in enzyme activity in comparison with non-treated cells (Enzyme activity assay for compounds of Examples 33-141)": "C (Increase in comparison with non-treated of 1.2-1.7 fold is shown as C)"}
{"molecule": "COc1ccccc1Nc1cc(N)nc(C(=O)NC2Cc3ccccc3C2)c1", "note": "[Example 76, 6-Amino-N-(2,3-dihydro-1H-inden-2-yl)-4-((2-methoxyphenyl)amino)picolinamide]", "Range: increase in enzyme activity in comparison with non-treated cells (Enzyme activity assay for compounds of Examples 33-141)": "D"}
{"molecule": "Cc1ccc(Nc2cc(N)nc(C(=O)Nc3ccccc3)c2)c(O)c1", "note": "[Example 77, 6-Amino-4-((2-hydroxy-4-methylphenyl)amino)-N-phenylpicolinamide]", "Range: increase in enzyme activity in comparison with non-treated cells (Enzyme activity assay for compounds of Examples 33-141)": "C (Increase in comparison with non-treated of 1.2-1.7 fold is shown as C)"}
{"molecule": "Nc1cc(Nc2ccc(F)cc2O)cc(C(=O)Nc2ccccc2)n1", "note": "[Example 78, 6-Amino-4-((4-fluoro-2-hydroxyphenyl)amino)-N-phenylpicolinamide]", "Range: increase in enzyme activity in comparison with non-treated cells (Enzyme activity assay for compounds of Examples 33-141)": "B (Increase in comparison with non-treated of >1.7-2.0 fold is shown as B)"}
{"molecule": "Nc1cc(Nc2ccccn2)cc(C(=O)Nc2ccccc2)n1", "note": "[Example 79, 6-Amino-N-phenyl-4-(pyridin-2-ylamino)pyridine-2-carboxamide]", "Range: increase in enzyme activity in comparison with non-treated cells (Enzyme activity assay for compounds of Examples 33-141)": "C (Increase in comparison with non-treated of 1.2-1.7 fold is shown as C)"}
{"molecule": "Nc1cc(Nc2cccnc2)cc(C(=O)Nc2ccccc2)n1", "note": "[Example 80, 6-Amino-N-phenyl-4-(pyridin-3-ylamino)picolinamide]", "Range: increase in enzyme activity in comparison with non-treated cells (Enzyme activity assay for compounds of Examples 33-141)": "C (Increase in comparison with non-treated of 1.2-1.7 fold is shown as C)"}
{"molecule": "Nc1nc(Nc2ccccc2O)cc(C(=O)NC2Cc3ccccc3C2)n1", "note": "[Example 81, 2-amino-N-(2,3-dihydro-1H-inden-2-yl)-6-((2-hydroxyphenyl)amino)pyrimidine-4-carboxamide]", "Range: increase in enzyme activity in comparison with non-treated cells (Enzyme activity assay for compounds of Examples 33-141)": "B (Increase in comparison with non-treated of >1.7-2.0 fold is shown as B)"}
{"molecule": "CN(C(=O)c1cc(Nc2ccccc2O)nc(N)n1)C1Cc2ccccc2C1", "note": "[Example 82, 2-Amino-N-(2,3-dihydro-1H-inden-2-yl)-6-((2-hydroxyphenyl)amino)-N-methylpyrimidine-4-carboxamide]", "Range: increase in enzyme activity in comparison with non-treated cells (Enzyme activity assay for compounds of Examples 33-141)": "C (Increase in comparison with non-treated of 1.2-1.7 fold is shown as C)"}
{"molecule": "CN(C(=O)c1cc(Nc2ccccc2O)nc(N)n1)C1CCc2ccccc2C1", "note": "(centres unmarked) [Example 83, 2-amino-6-((2-hydroxyphenyl)amino)-N-methyl-N-(1,2,3,4-tetrahydronaphthalen-2-yl)-pyrimidine-4-carboxamide]", "Range: increase in enzyme activity in comparison with non-treated cells (Enzyme activity assay for compounds of Examples 33-141)": "D"}
{"molecule": "Nc1nc(Nc2ccccc2O)cc(C(=O)NC2CCc3ccccc3C2)n1", "note": "(centres unmarked) [Example 84, 2-Amino-6-((2-hydroxyphenyl)amino)-N-(1,2,3,4-tetrahydronaphthalen-2-yl)pyrimidine-4-carboxamide]", "Range: increase in enzyme activity in comparison with non-treated cells (Enzyme activity assay for compounds of Examples 33-141)": "C (Increase in comparison with non-treated of 1.2-1.7 fold is shown as C)"}
{"molecule": "Nc1nc(Nc2ccccc2O)cc(C(=O)N2CCc3ccccc3C2)n1", "note": "[Example 85, (2-Amino-6-((2-hydroxyphenyl)amino)pyrimidin-4-yl)(3,4-dihydroisoquinolin-2(1H)-yl)methanone]", "Range: increase in enzyme activity in comparison with non-treated cells (Enzyme activity assay for compounds of Examples 33-141)": "C (Increase in comparison with non-treated of 1.2-1.7 fold is shown as C)"}
{"molecule": "Nc1nc(Nc2ccccc2O)cc(C(=O)N2Cc3ccccc3C2)n1", "note": "[Example 86, (2-Amino-6-((2-hydroxyphenyl)amino)pyrimidin-4-yl)(isoindolin-2-yl)methanone]", "Range: increase in enzyme activity in comparison with non-treated cells (Enzyme activity assay for compounds of Examples 33-141)": "C (Increase in comparison with non-treated of 1.2-1.7 fold is shown as C)"}
{"molecule": "Cc1ccccc1Nc1cc(N)cc(C(=O)NC2Cc3ccccc3C2)n1", "note": "[Example 87, 4-Amino-N-(2,3-dihydro-1H-inden-2-yl)-6-(o-tolylamino)picolinamide]", "Range: increase in enzyme activity in comparison with non-treated cells (Enzyme activity assay for compounds of Examples 33-141)": "B (Increase in comparison with non-treated of >1.7-2.0 fold is shown as B)"}
{"molecule": "Nc1cc(Nc2ccccc2O)nc(C(=O)N2CCN(c3ccccc3)CC2)c1", "note": "[Example 88, (4-Amino-6-((2-hydroxyphenyl)amino)pyridin-2-yl)(4-phenylpiperazin-1-yl)methanone]", "Range: increase in enzyme activity in comparison with non-treated cells (Enzyme activity assay for compounds of Examples 33-141)": "C (Increase in comparison with non-treated of 1.2-1.7 fold is shown as C)"}
